From ChEMBL document CHEMBL1134595, “Exploration of novel aryl binding sites of farnesyltransferase using molecular modeling and benzophenone-based farnesyltransferase inhibitors” (J Med Chem, 2001)

These compounds were tested against T1, Farnesyltransferase (Saccharomyces cerevisiae S288c, UniProt P22007+P29703) (assay: Inhibitory activity against yeast farnesyltransferase).
T1 sequence (P29703 whole entry): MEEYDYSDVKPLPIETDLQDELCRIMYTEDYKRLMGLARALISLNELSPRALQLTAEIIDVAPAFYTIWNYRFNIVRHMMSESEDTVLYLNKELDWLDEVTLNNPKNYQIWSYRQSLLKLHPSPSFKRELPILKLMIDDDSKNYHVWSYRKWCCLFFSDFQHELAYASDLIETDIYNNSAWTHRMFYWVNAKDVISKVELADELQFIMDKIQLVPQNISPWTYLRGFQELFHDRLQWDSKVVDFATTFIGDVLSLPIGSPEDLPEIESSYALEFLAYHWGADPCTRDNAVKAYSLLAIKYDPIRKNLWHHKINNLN
T1 sequence (P22007 whole entry): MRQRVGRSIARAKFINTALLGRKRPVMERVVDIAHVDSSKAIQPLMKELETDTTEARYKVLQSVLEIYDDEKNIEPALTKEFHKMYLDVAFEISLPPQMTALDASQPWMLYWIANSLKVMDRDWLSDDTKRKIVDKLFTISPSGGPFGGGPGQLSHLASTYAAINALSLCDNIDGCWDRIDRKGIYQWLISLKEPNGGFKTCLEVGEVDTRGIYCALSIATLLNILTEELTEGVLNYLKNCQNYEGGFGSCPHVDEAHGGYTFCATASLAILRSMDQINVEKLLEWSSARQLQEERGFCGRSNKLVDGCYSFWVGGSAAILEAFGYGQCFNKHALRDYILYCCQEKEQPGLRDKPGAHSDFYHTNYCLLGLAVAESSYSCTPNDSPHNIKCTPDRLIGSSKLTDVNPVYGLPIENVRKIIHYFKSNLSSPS
Format: protein-complex assay

| Structure (SMILES) | IC50 [nM] |
| --- | --- |
| Cc1ccc(CC(=O)Nc2ccc(NC(=O)CCCCCc3ccccc3)cc2C(=O)c2ccccc2)cc1 | 1100 |
| Cc1ccc(CC(=O)Nc2ccc(NC(=O)Cc3ccccc3)cc2C(=O)c2ccccc2)cc1 | 2000 |
| CCC(C)[C@@H](CN(CC(=O)N[C@@H](CCSC)C(=O)O)Cc1cccc2ccccc12)NC(=O)CC1CN(Cc2ccc(C#N)cc2)C=N1 (some centres undefined) | 12 |
| Cc1ccc(CC(=O)Nc2ccc(NC(=O)c3ccccc3)cc2C(=O)c2ccccc2)cc1 | 6000 |
| Cc1ccc(CC(=O)Nc2ccc(NC(=O)CCCCc3ccccc3)cc2C(=O)c2ccccc2)cc1 | 390 |
| Cc1ccc(CC(=O)Nc2ccc(NC(=O)CCCc3ccccc3)cc2C(=O)c2ccccc2)cc1 | 530 |
| CSCC[C@H](NC(=O)c1ccc(CN(Cc2ccccc2)c2cccnc2)cc1-c1ccccc1C)C(=O)O | 0.1 |
| CSCC[C@H](NC(=O)c1ccc(COc2cccnc2)cc1-c1ccccc1C)C(=O)O | 0.4 |
| Cc1ccc(CC(=O)Nc2ccc(NC(=O)/C=C/c3csc(-c4ccc([N+](=O)[O-])cc4)n3)cc2C(=O)c2ccccc2)cc1 | 455 |
| CCC(C)[C@@H](CN(CC(=O)N[C@@H](CCSC)C(=O)O)Cc1cccc2ccccc12)NC(=O)CSCc1ccc(C#N)cc1 (some centres undefined) | 5.4 |
| CSCC[C@H](NC(=O)c1ccc(COCc2ccc(-c3ccccc3)o2)cc1-c1ccccc1)C(=O)O | 6 |
| Cc1ccc(CC(=O)Nc2ccc(NC(=O)/C=C/c3ccc(-c4ccc(Br)cc4)o3)cc2C(=O)c2ccccc2)cc1 | 925 |
| Cc1ccc(CC(=O)Nc2ccc(NC(=O)/C=C/c3ccc(-c4ccc(Cl)cc4)o3)cc2C(=O)c2ccccc2)cc1 | 6300 |
| Cc1ccc(CC(=O)Nc2ccc(NC(=O)CCc3ccccc3)cc2C(=O)c2ccccc2)cc1 | 2000 |
